Here are results for twelve compounds from US9708251B2, “Unsaturated fatty alcohol alkoxylates from natural oil metathesis” (Stepan Company, priority 2012, dated 2017).

Series [1] is described as follows: Emulsion stability testing of nonionic emulsifiers, Hallcomid solvent series. The class given is physicochemical. Further details: key to 24 h separation, appearance / 1 h separation, appearance / 1 h separation, amount: C = creamy; CO = creamy oil; O = oil; GC = gritty cream; NS = no separation; OC = oily cream; key to Spon. (spontaneity): G = good; F = fair; P = poor. On the procedure: (§1) Nonionic samples contain a low amount of water (<1%) and are prepared as emulsifiable concentrates with three pesticides using two different solvent systems. In the aromatic solvent series, the nonionic sample replaces Toximul® 8240 (castor oil ethoxylate, 36 POE, Stepan), and in the Hallcomid™ (N,N-dimethylcaprylamide/N,N-dimethylcapramide, Stepan) solvent series, the nonionic sample replaces Ninex® MT-630F.
(§2) Hallcomid Solvent Series.
(§3) Sample preparation: The surfactants are combined and stirred until homogeneous, with the nonionic sample melted if needed prior to combination. Controls 1-3 are made by using Ninex MT-630F in the amounts indicated instead of the nonionic sample.
(§4) Emulsion Stability Testing
(§5) A Mohr pipette is used to feed pesticide/surfactant concentrates to each cylinder.

Assay in series [2]: as above
The class given is physicochemical. The arrangement: key: C = creamy; CO = creamy oil; O = oil; GC = gritty cream; NS = no separation; OC = oily cream. The note with it: Bifenthrin 240 g/L in Hallcomid M-8-10, 34 ppm water. The procedure:
as §1, §2, §3, §4, §5

Series [3] can be described thus: Emulsion stability testing of nonionic emulsifiers, aromatic solvent series. Further details: key to 24 h separation, appearance / 1 h separation, appearance / 1 h separation, amount: C = creamy; CO = creamy oil; O = oil; GC = gritty cream; NS = no separation; OC = oily cream; key to Spon. (spontaneity): G = good; F = fair; P = poor. In kind it is physicochemical. The procedure: as §1
Sample preparation: Ninate® 60E (calcium alkylbenzenesulfonate, Stepan) and the test sample are stirred until homogeneous. […] Controls 1-3 are made by using Toximul 8240 in the amounts indicated instead of the nonionic sample.
Formulations: • 1. Bifenthrin, 240 g/L (2.99 g), Aromatic 100 (ExxonMobil, 8.05 g), Ninate 60E (0.38 g), and nonionic sample or Toximul 8240 (0.58 g). • 2. 2,4-D ester, 480 g/L (8.90 g), Exxsol® D-110 (ExxonMobil, 2.50 g), Ninate 60E (0.36 g), and nonionic sample or Toximul 8240 (0.24 g). • 3. Tebuconazole, 360 g/L (4.45 g), N-methyl-2-pyrrolidone (6.35 g), Ninate 60E (0.48 g), nonionic sample or Toximul 8240 (0.72 g).
as §4, §5

A short description of series [4]: Agrichemical solvent analysis: active solubility. The conditions noted are these: room temperature. In kind it is physicochemical. The procedure: Solvency strength of potential agrichemical solvents is evaluated by identifying the solubility level of three standard pesticides in the solvent by weight percent: 2,4-D acid, imidacloprid, and tebuconazole. […] The active material is also accurately weighed before addition. Initial amounts of active material are approximately: 2,4-D: 0.3 g; imidacloprid: 0.02 g; tebuconazole: 0.3 g. Solvent and pesticide active are combined, allowed to mix for 1 h at room temperature, and then inspected for the presence of undissolved active material. Additional active material is added in appropriately small increments until it no longer dissolves completely. This mixture is then stirred for 24 h at room temperature, and if the active has completely dissolved, additional active ingredient is added and the mixture is stirred another 24 h at room temperature. The percent solubility is recorded, and performance is compared with that of a standard agricultural solvent.

A short description of series [5]: Surfactant phase behavior study (cross-polarized microscopy). In kind it is physicochemical. The conditions noted are these: room temperature. On the procedure: Phase behavior is observed using an Olympus BH-2 cross-polarized microscope at 100-400× and room temperature (20° C. to 22° C.). The inventive monounsaturated alcohol ethoxylates are compared with their saturated analogs.
Samples are prepared by diluting the most concentrated product gradually with deionized water. When the surfactant concentration approaches a phase transition, the concentration is varied at 2-4% intervals to estimate the phase boundary. The actives level reported in Table 4 for each phase boundary is within ±5% of the true boundary.
Samples are loaded between a microscope slide and cover glass and are allowed to equilibrate before observation. Microscopic texture is analyzed and used to determine the phase. For some samples, an AR 2000 rheometer (TA Instruments) is used to measure viscosity at 25° C. to further verify phase behavior.

The conditions of series [6]: 0.4 wt. % active, 342 ppm hard water.
Procedure: Surfactant solution (100 mL) is carefully transferred to a stainless-steel mixing cup, then mixed at high speed (27K rpm) using a Hamilton Beach mixer for 10 s. The contents are quickly poured into a 100-mL graduated cylinder to the 100-mL mark, and a stopwatch is immediately started. The amount of liquid settling in the cylinder is recorded every 15 s for 4 min. Less liquid drained indicates greater foam stability.
[7] abbreviates: 2,4-D diester 480 g/L in Hallcomid M-8-10, 34 ppm water.
[8] abbreviates: 2,4-D diester 480 g/L in Hallcomid M-8-10, 1000 ppm water.
Setting [9] is: Bifenthrin 240 g/L in Hallcomid M-8-10, 34 ppm water.
Setting [10] is: Bifenthrin 240 g/L in Hallcomid M-8-10, 1000 ppm water.
Setting [11] is: Tebuconazole 360 g/L in Hallcomid M-8-10, 34 ppm water.
The mark [12] stands for this setting: Tebuconazole 360 g/L in Hallcomid M-8-10, 1000 ppm water.
[13] abbreviates: 2,4-D ester 480 g/L in Exxsol D-110, 34 ppm water.
Setting [14] is: 2,4-D ester 480 g/L in Exxsol D-110, 1000 ppm water.
The mark [15] stands for this setting: Bifenthrin 240 g/L in Aromatic 100, 34 ppm water.
Setting [16] is: Bifenthrin 240 g/L in Aromatic 100, 1000 ppm water.
The mark [17] stands for this setting: Tebuconazole 360 g/L in N-methyl-2-pyrrolidone, 34 ppm water.
Setting [18] is: Tebuconazole 360 g/L in N-methyl-2-pyrrolidone, 1000 ppm water.

With `CCC=CCCCCCCCCOCCO` (mixture of isomers) [A12-4], the “1 h separation, amount” value is on record as 6.2 mL in series [1] (setting [7]); 6.9 mL in series [1] (setting [8]); “NS” in series [1] (setting [9]); 11 mL in series [1] (setting [10]); 3.1 mL in series [1] (setting [11]); 3.1 mL in series [1] (setting [12]). Besides, the “1 h separation, amount” value in series [3] (setting [13]) stood at 6 mL; in series [3] (setting [14]), 4.7 mL; in series [3] (setting [15]) it was 8 mL; in series [3] (setting [16]), 5.2 mL; in series [3] (setting [17]) it was 2.3 mL; in series [3] (setting [18]) it was 2.3 mL. The “1 h separation, appearance” value in series [1] (setting [7]), in series [1] (setting [8]), in series [1] (setting [10]), in series [1] (setting [11]), in series [1] (setting [12]) and in series [3] (setting [13]) was “C” throughout. Also, the “1 h separation, appearance” value in series [3] (setting [14]) is on record as “O”; in series [3] (setting [15]), “C”; in series [3] (setting [16]), “O”; in series [3] (setting [17]) it was “C”; in series [3] (setting [18]) it was “C”. Moreover, the “24 h separation, amount” value is recorded as 8.8 mL in series [1] (setting [7]); 8.6 mL in series [1] (setting [8]); 2 O, 3 CO in series [1] (setting [10]); 5.9 mL in series [1] (setting [11]); 6 mL in series [1] (setting [12]); “NS” in series [2]. Moreover, the “24 h separation, amount” value in series [3] (setting [13]) was found to be 6.7 mL; in series [3] (setting [14]), 4.5 mL; in series [3] (setting [16]), 5.2 mL; in series [3] (setting [17]), 2.5 mL; in series [3] (setting [18]), 2.7 mL. Besides, the “24 h separation, appearance” value in series [1] (setting [7]) is “C”; in series [1] (setting [8]), “C”; in series [1] (setting [11]), “C”; in series [1] (setting [12]), “C”; in series [3] (setting [13]), “C”; in series [3] (setting [14]), “O”. Further, the “24 h separation, appearance” value in series [3] (setting [16]) is “O”; in series [3] (setting [17]), “GC”; in series [3] (setting [18]), “GC”. For the same compound, the “Spon. (spontaneity)” value in series [1] (setting [7]) is recorded as “F”; in series [1] (setting [8]), “F”; in series [1] (setting [9]) it was “G”; in series [1] (setting [10]) it was “F”; in series [1] (setting [11]) it was “F”; in series [1] (setting [12]) it was “F”. The “Spon. (spontaneity)” value in series [3] (setting [13]), in series [3] (setting [14]), in series [3] (setting [15]), in series [3] (setting [16]), in series [3] (setting [17]) and in series [3] (setting [18]) was “P” in each case.

`CCCCCCCCCC(=O)N(C)C` [N,N-dimethylcapramide, reference compound]: in series [4], the “solubility of 2,4-D Acid in the solvent” value is given as 45.4 weight percent, the “solubility of Imidacloprid in the solvent” value turned out to be 4.2 weight percent and the “solubility of Tebuconazole in the solvent” value is 38.8 weight percent.

With `CN1CCCC1=O` [N-methyl-2-pyrrolidone, reference compound], in series [4], the “solubility of 2,4-D Acid in the solvent” value was 39.5 weight percent, the “solubility of Imidacloprid in the solvent” value was 29.3 weight percent and the “solubility of Tebuconazole in the solvent” value is 62.2 weight percent.

On to `CCCCCCCCCCOCCOCCOCCO` [sat. analog of A10-7], for which the “combined isotropic phases (clear and opaque), share of the total” value in series [5] is on record as “about 38%”. Moreover, in series [5] (in deionized water), the “Isotropic Clear phase region” value is 90-100 % Actives Level, the “Isotropic Opaque phase region” value was 0-28 % Actives Level and the Lamellar phase region is recorded as 28-90 % Actives Level.

Turning to `CCCCCCCCCCOCCOCCOCCOCCOCCO` [sat. analog of A10-10], the Lamellar phase region in series [5] (in deionized water) is 55-80 % Actives Level.

As to `CCCCCCCCCCOCCOCCOCCOCCOCCOCCOCCO` [sat. analog of A10-13], the Lamellar phase region in series [5] (in deionized water) is 43-60 % Actives Level.

Take `CCCCCCCCCCOCCOCCOCCOCCOCCOCCOCCOCCOCCOCCOCCOCCOCCOCCOCCO` [sat. analog of A10-16]: in series [5] (in deionized water), the Cubic phase region is 37-55 % Actives Level and the Paste phase region is 93-100 % Actives Level.

As for `CCCCCCCCCCCCOCCOCCOCCO` [sat. analog of A12-7], the “combined isotropic phases (clear and opaque), share of the total” value in series [5] is “about 38%”. For the same compound, in series [5] (in deionized water), the “Isotropic Clear phase region” value is listed as 90-100 % Actives Level, the “Isotropic Opaque phase region” value was 0-28 % Actives Level and the Lamellar phase region is listed as 28-90 % Actives Level.

Regarding `CCCCCCCCCCCCOCCOCCOCCOCCOCCO` [sat. analog of A12-10], in series [5] (in deionized water), the Lamellar phase region is on record as 40-83 % Actives Level and the Lamellar/Isotropic phase region was 30-40 % Actives Level.

Turning to `CCCCCCCCCCCCOCCOCCOCCOCCOCCOCCOCCO` [sat. analog of A12-13], in series [5] (in deionized water), the Hexagonal phase region is on record as 30-67 % Actives Level and the Lamellar phase region is 67-90 % Actives Level.

Consider `CCCCCCCCCCCCOCCOCCOCCOCCOCCOCCOCCOCCOCCOCCOCCOCCOCCOCCOCCO` [sat. analog of A12-16], for which, in series [5] (in deionized water), the Cubic phase region is on record as 28-50 % Actives Level, the Hexagonal phase region is on record as 50-73 % Actives Level and the Paste phase region is listed as 93-100 % Actives Level.

Take “ammonium alkyl ether sulfate [Control 3, reference compound]”: in series [6], the “Liquid volume at drain time 0.5 min” value stood at 0.25 mL, the “Liquid volume at drain time 1.0 min” value came to 1.00 mL, the “Liquid volume at drain time 1.5 min” value stood at 2.00 mL and the “Liquid volume at drain time 2.0 min” value is on record as 3.00 mL. Also, in series [6], the “Liquid volume at drain time 2.5 min” value came out at 4.00 mL, the “Liquid volume at drain time 3.0 min” value amounted to 5.25 mL, the “Liquid volume at drain time 3.5 min” value was 6.50 mL and the “Liquid volume at drain time 4.0 min” value is given as 7.50 mL.
